We go through 9 compounds from patent US20220081435A1, “ANDROGEN RECEPTOR PROTEIN DEGRADERS” (THE REGENTS OF THE UNIVERSITY OF MICHIGAN, priority 2019, published 2022).

This experiment deals with T1, AR protein (Homo sapiens, UniProt P10275, T878A).
T1 construct: The percent AR protein degradation induced by these compounds at various concentrations in LNCaP cells; host or cells: LNCaP
T1 sequence (P10275 1-920 T878A): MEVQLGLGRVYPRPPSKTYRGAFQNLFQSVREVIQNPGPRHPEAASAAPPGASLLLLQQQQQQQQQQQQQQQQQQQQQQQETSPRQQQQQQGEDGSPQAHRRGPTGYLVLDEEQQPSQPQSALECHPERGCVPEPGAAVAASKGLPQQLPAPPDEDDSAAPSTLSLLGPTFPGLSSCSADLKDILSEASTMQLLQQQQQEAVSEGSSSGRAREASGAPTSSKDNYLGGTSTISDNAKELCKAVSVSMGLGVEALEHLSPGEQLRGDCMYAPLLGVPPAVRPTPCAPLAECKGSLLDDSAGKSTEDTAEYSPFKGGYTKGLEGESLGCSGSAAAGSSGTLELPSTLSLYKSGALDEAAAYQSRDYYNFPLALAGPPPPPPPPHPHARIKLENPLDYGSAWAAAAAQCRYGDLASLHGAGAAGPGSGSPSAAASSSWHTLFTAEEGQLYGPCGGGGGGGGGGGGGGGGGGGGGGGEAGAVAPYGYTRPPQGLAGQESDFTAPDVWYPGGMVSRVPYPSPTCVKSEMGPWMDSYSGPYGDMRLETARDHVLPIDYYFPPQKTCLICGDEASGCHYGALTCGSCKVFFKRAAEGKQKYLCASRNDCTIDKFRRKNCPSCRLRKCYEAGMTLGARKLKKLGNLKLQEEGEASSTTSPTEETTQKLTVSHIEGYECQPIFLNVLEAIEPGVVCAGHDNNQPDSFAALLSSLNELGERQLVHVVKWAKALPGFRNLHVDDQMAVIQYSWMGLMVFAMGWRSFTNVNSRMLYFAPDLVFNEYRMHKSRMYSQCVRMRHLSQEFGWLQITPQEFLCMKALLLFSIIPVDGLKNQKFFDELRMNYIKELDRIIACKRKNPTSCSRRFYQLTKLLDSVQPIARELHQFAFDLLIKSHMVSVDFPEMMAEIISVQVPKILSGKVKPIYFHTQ
Description: AR protein degradation in LNCaP cells (Western blotting). Format: cell-based. The settings on record: treatment time 6 h, average of three independent experiments; for Dmax at 0.01 µM / Dmax at 0.1 µM / Dmax at 1 µM / Dmax at 10 µM: LNCaP; for Dmax at 0.1 µM / Dmax at 1 µM / Dmax at 10 µM: read-out: % AR protein degradation in LNCaP Cells. As to the method: Cell lines and Cell Culture: All the LNCaP, VCaP and 22RV1 cells used were purchased from American Type Culture Collection (ATCC). […] All of the cells were supplemented with 10% fetal bovine serum (Invitrogen) at 37° C. in a humidified 5% CO2 incubator.
Western Blotting. Treated cells were lysed by RIPA buffer supplemented with protease and phosphatase inhibitors. […] Software ImageJ was used to quantify the percentage of AR degradation. The net protein bands and loading controls are calculated by deducting the background from the inverted band value. The final relative quantification values are the ratio of net band to net loading control.
A general note: In western blotting, separated proteins are transferred to a membrane and probed.

With `Cc1ncsc1-c1ccc(CNC(=O)C2C[C@@H](O)CN2C(=O)[C@@H](NC(=O)CCCCCCc2ccc(C#Cc3ccc(N4C(=S)N(c5ccc(C#N)c(C(F)(F)F)c5)C(=O)C4(C)C)cc3)cn2)C(C)(C)C)cc1` (stereo partly drawn) [Compound 19, (4R)-1-((S)-2-(7-(5-((4-(3-(4-Cyano-3-(trifluoromethyl)phenyl)-5,5-dimethyl-4-oxo-2-thioxoimidazolidin-1-yl)phenyl)ethynyl)pyridin-2-yl)heptanamido)-3,3-dimethylbutanoyl)-4-hydroxy-N-(4-(4-methylthiazol-5-yl)benzyl)pyrrolidine-2-carboxamide], the Dmax at 0.01 µM amounted to 30%. For the same compound, the Dmax at 0.1 µM (0.1 μM) came to 63%. Where the note is “1 μM”, the Dmax at 1 µM amounted to 96%.

For `Cc1ncsc1-c1ccc(CNC(=O)C2C[C@@H](O)CN2C(=O)[C@@H](NC(=O)CCCN2CCN(c3ccc(C#Cc4ccc(N5C(=S)N(c6ccc(C#N)c(C(F)(F)F)c6)C(=O)C5(C)C)cc4)cn3)CC2)C(C)(C)C)cc1` (stereo partly drawn) [Compound 20, (4R)-1-((S)-2-(4-(4-(5-((4-(3-(4-Cyano-3-(trifluoromethyl)phenyl)-5,5-dimethyl-4-oxo-2-thioxoimidazolidin-1-yl)phenyl)ethynyl)pyridin-2-yl)piperazin-1-yl)butanamido)-3,3-dimethylbutanoyl)-4-hydroxy-N-(4-(4-methylthiazol-5-yl)benzyl)pyrrolidine-2-carboxamide], under “0.1 μM”, the Dmax at 0.1 µM is 50%. Further, for the setting “1 μM”, the Dmax at 1 µM is 80%. For the same compound, the Dmax at 10 µM (10 μM) was 80%.

Compound `Cc1ncsc1-c1ccc([C@H](C)NC(=O)C2C[C@@H](O)CN2C(=O)[C@@H](NC(=O)CCCN2CCN(c3ccc(C#Cc4ccc(N5C(=S)N(c6ccc(C#N)c(C(F)(F)F)c6)C(=O)C5(C)C)cc4)cn3)CC2)C(C)(C)C)cc1` (stereo partly drawn) [Compound 21, (4R)-1-((S)-2-(4-(4-(5-((4-(3-(4-Cyano-3-(trifluoromethyl)phenyl)-5,5-dimethyl-4-oxo-2-thioxoimidazolidin-1-yl)phenyl)ethynyl)pyridin-2-yl)piperazin-1-yl)butanamido)-3,3-dimethylbutanoyl)-4-hydroxy-N—((S)-1-(4-(4-methylthiazol-5-yl)phenyl)ethyl)pyrrolidine-2-carboxamide] registered a Dmax at 0.01 µM of 37%. Also, for the setting “0.1 μM”, the Dmax at 0.1 µM amounted to 61%. Where the note is “1 μM”, the Dmax at 1 µM came to 92%.

With `Cc1ncsc1-c1ccc([C@H](C)NC(=O)[C@@H]2C[C@@H](O)CN2C(=O)[C@@H](NC(=O)CCCCN2CCN(c3ccc(C#Cc4ccc(N5C(=S)N(c6ccc(C#N)c(C(F)(F)F)c6)C(=O)C5(C)C)cc4)cn3)CC2)C(C)(C)C)cc1` [Compound 22, (2S,4R)-1-((S)-2-(5-(4-(5-((4-(3-(4-Cyano-3-(trifluoromethyl)phenyl)-5,5-dimethyl-4-oxo-2-thioxoimidazolidin-1-yl)phenyl)ethynyl)pyridin-2-yl)piperazin-1-yl)pentanamido)-3,3-dimethylbutanoyl)-4-hydroxy-N—((S)-1-(4-(4-methylthiazol-5-yl)phenyl)ethyl)pyrrolidine-2-carboxamide], the Dmax at 0.01 µM is 28%. Moreover, where the note is “0.1 μM”, the Dmax at 0.1 µM is 48%. In addition, under “1 μM”, the Dmax at 1 µM came out at 89%.

In the case of `Cc1ncsc1-c1ccc([C@H](C)NC(=O)C2C[C@@H](O)CN2C(=O)[C@@H](NC(=O)CCN2CCN(c3ccc(C#Cc4ccc(N5C(=S)N(c6ccc(C#N)c(C(F)(F)F)c6)C(=O)C5(C)C)cc4)cn3)CC2)C(C)(C)C)cc1` (stereo partly drawn) [Compound 23, (4R)-1-((S)-2-(3-(4-(5-((4-(3-(4-Cyano-3-(trifluoromethyl)phenyl)-5,5-dimethyl-4-oxo-2-thioxoimidazolidin-1-yl)phenyl)ethynyl)pyridin-2-yl)piperazin-1-yl)propanamido)-3,3-dimethylbutanoyl)-4-hydroxy-N—((S)-1-(4-(4-methylthiazol-5-yl)phenyl)ethyl)pyrrolidine-2-carboxamide], the Dmax at 0.01 µM is 34%. Further, for the setting “0.1 μM”, the Dmax at 0.1 µM was determined as 51%. Also, for the setting “1 μM”, the Dmax at 1 µM worked out at 78%.

Regarding `Cc1ncsc1-c1ccc([C@H](C)NC(=O)C2C[C@@H](O)CN2C(=O)[C@@H](NC(=O)CN2CCN(c3ccc(C#Cc4ccc(N5C(=S)N(c6ccc(C#N)c(C(F)(F)F)c6)C(=O)C5(C)C)cc4)cn3)CC2)C(C)(C)C)cc1` (stereo partly drawn) [Compound 24, (4R)-1-((S)-2-(2-(4-(5-((4-(3-(4-Cyano-3-(trifluoromethyl)phenyl)-5,5-dimethyl-4-oxo-2-thioxoimidazolidin-1-yl)phenyl)ethynyl)pyridin-2-yl)piperazin-1-yl)acetamido)-3,3-dimethylbutanoyl)-4-hydroxy-N—((S)-1-(4-(4-methylthiazol-5-yl)phenyl)ethyl)pyrrolidine-2-carboxamide], the Dmax at 0.1 µM (0.1 μM) amounted to 3%. In addition, the Dmax at 1 µM (1 μM) was 31%. Moreover, the Dmax at 10 µM (10 μM) was found to be 28%.

For `Cc1ncsc1-c1ccc([C@H](C)NC(=O)C2C[C@@H](O)CN2C(=O)[C@@H](NC(=O)N2CCN(c3ccc(C#Cc4ccc(N5C(=S)N(c6ccc(C#N)c(C(F)(F)F)c6)C(=O)C5(C)C)cc4)cn3)CC2)C(C)(C)C)cc1` (stereo partly drawn) [Compound 25, 4-(5-((4-(3-(4-Cyano-3-(trifluoromethyl)phenyl)-5,5-dimethyl-4-oxo-2-thioxoimid-azolidin-1-yl)phenyl)ethynyl)pyridin-2-yl)-N-((2S)-1-((4R)-4-hydroxy-2-(((S)-1-(4-(4-methylthiazol-5-yl)phenyl)ethyl)carbamoyl)pyrrolidin-1-yl)-3,3-dimethyl-1-oxobutan-2-yl)piperazine-1-carboxamide], the “% AR protein degradation in LNCaP Cells” value is, setting by setting: (0.1 μM) 0%; (1 μM) 12%; (10 μM) 0%.

As for `Cc1cc([C@H](C(=O)N2C[C@H](O)C[C@H]2C(=O)N[C@@H](CC(=O)NCCCCCCCCCNC(=O)c2ccc(N3C(=S)N(c4ccc(C#N)c(C(F)(F)F)c4)C(=O)C3(C)C)cc2F)c2ccc(-c3scnc3C)cc2)C(C)C)on1` [Compound 26, (2S,4R)—N—((S)-3-((9-(4-(3-(4-Cyano-3-(trifluoromethyl)phenyl)-5,5-dimethyl-4-oxo-2-thioxoimidazolidin-1-yl)-2-fluorobenzamido)nonyl)amino)-1-(4-(4-methylthiazol-5-yl)phenyl)-3-oxopropyl)-4-hydroxy-1-((R)-3-methyl-2-(3-methylisoxazol-5-yl)butanoyl)pyrrolidine-2-carboxamide], the Dmax at 0.01 µM is 11%. The Dmax at 0.1 µM (0.1 μM) worked out at 50%. In addition, the Dmax at 1 µM (1 μM) was 87%.

For `Cc1cc([C@H](C(=O)N2C[C@H](O)C[C@H]2C(=O)N[C@@H](CC(=O)NCCCN2CCN(c3ccc(C#Cc4ccc(N5C(=S)N(c6ccc(C#N)c(C(F)(F)F)c6)C(=O)C5(C)C)cc4)cn3)CC2)c2ccc(-c3scnc3C)cc2)C(C)C)on1` [Compound 27, (2S,4R)—N—((S)-3-((3-(4-(5-((4-(3-(4-Cyano-3-(trifluoromethyl)phenyl)-5,5-dimethyl-4-oxo-2-thioxoimidazolidin-1-yl)phenyl)ethynyl)pyridin-2-yl)piperazin-1-yl)propyl)amino)-1-(4-(4-methylthiazol-5-yl)phenyl)-3-oxopropyl)-4-hydroxy-1-((R)-3-methyl-2-(3-methylisoxazol-5-yl)butanoyl)pyrrolidine-2-carboxamide], the Dmax at 0.01 µM stood at 27%. Besides, where the note is “0.1 μM”, the Dmax at 0.1 µM was found to be 75%. For the same compound, the Dmax at 1 µM (1 μM) stood at 94%.
